The values that follow are results of earlier work, collected in patent publication US20100087454A1, “MUCOSAL BIOADHESIVE SLOW RELEASE CARRIER FOR DELIVERING ACTIVE PRINCIPLES” (priority 2007, published 2010).

For the data set the following is noted: after systemic administration orally; relative to 50% inhibitory dose of herpes simplex-1 virus.

SMILES strings stand for the structures.

With `Nc1nc2c(ncn2COCCO)c(=O)[nH]1` [acyclovir], the “peak acyclovir concentrations in saliva” value is listed as “at the lower end of the 50% inhibitory dose of herpes simplex-1 virus”.
